In patent publication US12178822B2, “Methods of treating hematological malignancies using 2-(2,6-dioxopiperidin-3-yl)-4-((2-fluoro-4-((3-morpholinoazetidin-1-yl)methyl)benzyl)amino)isoindoline-1,3-dion” (Celgene Corporation, priority 2019, dated 2024):

Experiments:
Assay type in all cases: cell-based
[1] = test system: SVSL/VL51; assay: Cell proliferation and viability / apoptosis flow cytometry assay, SVSL; conditions: SVSL (MZL, SMZL); 120 hours
Method: (§1) The following are examples of cell-based assays that can be used to determine the anti-proliferative activity and apoptotic effect of compounds described herein using exemplary hematological cell lines (Table 1). The in vitro growth inhibitory activity of Compound 1 described herein was evaluated using a 384-well flow cytometry assay.
(§2) The cell lines were plated under the conditions shown in Table 1 in 384-well flat bottom plates and incubated with increasing concentrations of compound ranging from 0.00015 to 10 μM or dimethyl sulfoxide (DMSO) control. The final concentration of DMSO was 0.1% (v/v). Following the addition of Compound 1 or DMSO and incubation for 120 hours, cell number and cell death were analyzed by flow cytometry (Attune®, Thermo Fisher) using Annexin V and the live-cell impermeant DNA dye, DRAQ7. […]
(§3) Flow cytometry data analysis was then performed using the Flow Jo_v10 software to determine the number of viable cells (Annexin V and DRAQ7 double negative staining cells) and percentage of apoptotic cells (Annexin V positive cells) for each condition. […] The IC50 (50% inhibitory concentration) and Emax (maximum efficacy achieved) values were then calculated by performing nonlinear regression curve fitting using log(inhibitor) vs. normalized response—variable slope analysis on GraphPad Prism 7.03. […]

[2] = test system: Daudi; assay: Cell proliferation and viability / apoptosis flow cytometry assay, Daudi; conditions: Daudi (BL); 120 hours
Method: as §1, §2, §3

[3] = test system: BL-41; assay: Cell proliferation and viability / apoptosis flow cytometry assay, BL-41; conditions: 120 hours
Method: as §1, §2, §3

[4] = test system: MDS-L; assay: Cell proliferation and viability / apoptosis flow cytometry assay, MDS-L; conditions: 120 hours
Method: as §1, §2, §3

[5] = test system: HNT-34; assay: Cell proliferation and viability / apoptosis flow cytometry assay, HNT-34; conditions: HNT-34 (AML); 120 hours
Method: as §1, §2, §3

[6] = test system: NCI-H929; assay: Cell proliferation and viability / apoptosis flow cytometry assay, NCI-H929; conditions: NCI-H929 (MM); 120 hours
Method: as §1, §2, §3

[7] = test system: OPM-2; assay: Cell proliferation and viability / apoptosis flow cytometry assay, OPM-2; conditions: OPM-2 (MM); 120 hours
Method: as §1, §2, §3

[8] = test system: HuT-102; assay: Cell proliferation and viability / apoptosis flow cytometry assay, HuT-102; conditions: HuT-102 (TCL); 120 hours
Method: as §1, §2, §3

[9] = test system: Karpas-299; assay: Cell proliferation and viability / apoptosis flow cytometry assay, Karpas-299; conditions: Karpas-299 (TCL); 120 hours
Method: as §1, §2, §3

[10] = test system: JJN-3; assay: Cell proliferation and viability / apoptosis flow cytometry assay, JJN-3; conditions: JJN-3 (MM, PCL); 120 hours
Method: as §1, §2, §3

[11] = test system: SK-MM-1; assay: Cell proliferation and viability / apoptosis flow cytometry assay, SK-MM-1; conditions: SK-MM-1 (MM, PCL); 120 hours
Method: as §1, §2, §3

[12] = test system: L-363; assay: Cell proliferation and viability / apoptosis flow cytometry assay, L-363; conditions: L-363 (MM, PCL); 120 hours
Method: as §1, §2, §3

[13] = test system: Karpas-231; assay: Cell proliferation and viability / apoptosis flow cytometry assay, Karpas-231; conditions: Karpas-231 (ALL); 120 hours
Method: as §1, §2, §3

[14] = test system: KOPN-8; assay: Cell proliferation and viability / apoptosis flow cytometry assay, KOPN-8; conditions: KOPN-8 (ALL); 120 hours
Method: as §1, §2, §3

[15] = test system: L-428; assay: Cell proliferation and viability / apoptosis flow cytometry assay, L-428; conditions: L-428 (HL); 120 hours
Method: as §1, §2, §3

[16] = test system: L-591; assay: Cell proliferation and viability / apoptosis flow cytometry assay, L-591; conditions: L-591 (HL); 120 hours
Method: as §1, §2, §3

`O=C1CC[C@H](N2C(=O)c3cccc(NCc4ccc(CN5CC(N6CCOCC6)C5)cc4F)c3C2=O)C(=O)N1` [Compound 1, (S)-2-(2,6-dioxopiperidin-3-yl)-4-((2-fluoro-4-((3-morpholinoazetidin-1-yl)methyl)benzyl)amino)isoindoline-1,3-dione] was tested, and the “% Viable Cells Emax (percentage of tumor cells remaining)” value [1] was 34.07%, the “% Viable Cells Emax (percentage of tumor cells remaining)” value [2] was 0% and the “% Viable Cells Emax (percentage of tumor cells remaining)” value [3] was 96.65%. The “% Viable Cells Emax (percentage of tumor cells remaining)” value [4] was 146.7%, the “% Viable Cells Emax (percentage of tumor cells remaining)” value [5] was 20.47% and the “% Viable Cells Emax (percentage of tumor cells remaining)” value [6] was 6.1%. For the same compound, the “% Viable Cells Emax (percentage of tumor cells remaining)” value [7] was 6.65%, the “% Viable Cells Emax (percentage of tumor cells remaining)” value [8] was 36.34% and the “% Viable Cells Emax (percentage of tumor cells remaining)” value [9] was 8.43%. For the same compound, the “% Viable Cells Emax (percentage of tumor cells remaining)” value [10] was 21.6%, the “% Viable Cells Emax (percentage of tumor cells remaining)” value [11] was 3% and the “% Viable Cells Emax (percentage of tumor cells remaining)” value [12] was 27.6%. The “% Viable Cells Emax (percentage of tumor cells remaining)” value [13] was 0%, the “% Viable Cells Emax (percentage of tumor cells remaining)” value [14] was 38.3% and the “% Viable Cells Emax (percentage of tumor cells remaining)” value [15] was 47.3%. For the same compound, the “% Viable Cells Emax (percentage of tumor cells remaining)” value [16] was 34.6%.
